Like-named read-outs stand apart in the source and are kept apart here.
What was measured:
[1] = Effect of oral compounds on body weight in Balb-c mice; format: in vivo; details: for body weight Day 0: before dosing; for lost % of body weight: day 6 versus day zero
Procedure: Compounds were administered at the indicated doses by oral gavage daily for 5 days. Weights measured before and on day 6 after 5 doses.

[2] = Cytotoxicity in 2.2.15 cells by neutral red uptake; details: human
[3] = tested on: HIV-192US727; test: Anti-HIV assay in human PBMC, supernatant reverse transcriptase activity; details: for Selectivity Index: HIV-192US727, human PBMC
[4] = Viability of PBMC by XTT reduction; details: human
[5] = tested on: Hepatitis B virus; test: HBV replication in 2.2.15 cells, HBV DNA blot hybridization; details: for EC50: Hepatitis B virus, 168 h; for Selectivity Index: hepatitis B virus, 2.2.15 cells
[6] = Toxicity in HEK 293 cells by trypan blue exclusion (HPV-16 example); format: cell-based; details: human
Procedure: (§1) An origin-containing plasmid was co-transfected with HPV-16 E1 and E2 protein expression vectors into HEK 293 cells. At 4 hr post-transfection, cells were treated with compound dilutions and the cells were incubated for 48 hr. Replication of the virus origin was detected with DpnI and exonuclease III to remove unreplicated input bacterial plasmid DNA. Remaining replicated DNA was quantified by qPCR. Toxicity was determined by trypan blue exclusion.

[7] = tested on: HPV-16; test: HPV-16 origin replication in HEK 293 cells, qPCR; format: cell-based; details: for Selectivity Index: HPV-16, HEK 293 cells
Procedure: as §1

[8] = tested on: HPV-11; test: HPV-11 origin replication in HEK 293 cells, qPCR; format: cell-based; details: for EC90: read-out: EC90 (concentration required to reduce viral replication by 90%)
Procedure: as §1, with “HPV-11” for “HPV-16”

[9] = tested on: MT-2 cells; test: Cytotoxicity in MT-2 cells, flow cytometry cell counts and viability; format: cell-based, human; details: 72 hrs, read-out: CC50, 50% Cytotoxic concentration MT2 cells T cell leukemia
Procedure: (§2) MT-2 cells were incubated with drug for 72 hrs and harvested. Flow count beads (Beckman Coulter, Miami, Fla.) were added to the cell suspension followed by propidium iodide staining and analysis using flow cytometer and the 50% cytotoxic concentration (CC50) was calculated from the cell counts and viability.

[10] = tested on: Human peripheral blood monocyte (PBMC); test: Viability of PBMC by XTT reduction; details: human PBMC, XTT reduction
[11] = tested on: MAD-1 strain of JC virus; test: Antiviral effect in JC virus (MAD-1) infected COS7 cells, qPCR
[12] = tested on: BK virus (Gardner strain); test: Antiviral effect in HFF cells infected with BK virus (Gardner strain), qPCR
[13] = African green monkey, uninfected COS7 cells
[14] = tested on: AD169 strain of human cytomegalovirus; test: Antiviral effect in HFF cells infected with human cytomegalovirus (AD169)
[15] = Cytotoxicity in HFF cells in parallel to HSV-1 assay; details: human, […]
[16] = human
[17] = Cytotoxicity in HFF cells in parallel to cytomegalovirus assay; details: human, […]
[18] = tested on: HIV-1LAI; test: HIV antiviral assay in MT-2 cells, p24 reduction; details: Human immunodeficiency virus 1, MT2, 96 h
[19] = Toxicity in HEK 293 cells by trypan blue exclusion (HPV-11 example); format: cell-based; details: human
Procedure: as §1, with “HPV-11” for “HPV-16”

[20] = Cytotoxicity in MT-2 cells, flow cytometry cell counts and viability; format: cell-based, human; details: human; MT-2 cells, 72 hrs
Procedure: as §2

[21] = Cytotoxicity in HFF cells in parallel to HSV-2 assay; details: human, […]
[22] = Human immunodeficiency virus 1, PBMC, 168 h
[23] = HPV-11 origin replication in HEK 293 cells, 48 hr, qPCR

CCCCCCCCCCCCCCCCCCOCCOP(=O)(O)CO[C@H](CO)Cn1ccc(N)nc1=O [ODE-CDV]
body weight Day 6 ([1]; 20 mg/kg/day oral gavage daily for 5 days): 16.96 ± 1.38 (6)
body weight Day 0 ([1]; 20 mg/kg/day oral gavage): 19.88 ± 0.55 (6)
lost % of body weight ([1]; 20 mg/kg/day): 14.7%

CCCCCCCCCCCCCCCCCCOCCOP(=O)(CO[C@H](COC)Cn1cnc2c(N)ncnc21)OCc1ccccc1 (stereo partly drawn) [Compound 146, benzyl octadecyloxyethyl 9-(S)-[(3-methoxy-2-phosphonomethoxy)propyl]adenine]
CC50 at 7 days [2]: > 100 µM
Selectivity Index [3]: >312
EC50 [3, 22]: < 0.04 µM
CC50 at 7 days ([4]; PHA-stimulated human PBMCs): 12.5 µM
EC50 [5]: 33 µM
Selectivity Index [5]: >3.03

CCCCCCCCCCCCCCCCCCOCCOP(=O)(O)COCCn1cnc2c(=O)[nH]c(N)nc21 [ODE-PMEG, octadecyloxyethyl 9-[2-(phosphonomethoxy)ethyl]guanine]
body weight Day 6 ([1]; 4 mg/kg/day oral gavage daily for 5 days): 15.5 ± 0.514 (3)
body weight Day 0 ([1]; 4 mg/kg/day oral gavage): 19.17 ± 0.581 (3)
lost % of body weight ([1]; 4 mg/kg/day): 19.1%

CCCCCCCCCCCCCCCCCCOCCOP(=O)(COCCn1cnc2c(=O)[nH]c(N)nc21)Oc1ccccc1 (centres unmarked) [Compound 19, phenyl octadecyloxyethyl 9-(2-phosphonomethoxyethyl)guanine]
CC50 at 7 days [2]: > 100 µM
Selectivity Index [3]: >9.0
EC50 [3, 22]: < 0.003 µM
CC50 at 7 days [4]: 0.018 µM
CC50 at 48 h [6]: > 10 µM
EC50 ([7]; HEK293, 48 h): 5.27 µM
Selectivity Index [7]: >1.9
EC50 [5]: 43 µM
Selectivity Index [5]: >2.33

CCCCCCCCCCCCCCCCCCOCCOP(=O)(COCCn1cnc2c(=O)[nH]c(N)nc21)OCc1ccccc1 (single isomer, unassigned) [Compound 1a, benzyl octadecyloxyethyl 9-(2-phosphonomethoxyethyl)guanine]
EC90 [8, 23]: 1.06 µM
CC50 [9]: < 0.01 µM

CCCCCCCCCCCCCCCCCCOCCOP(=O)(CO[C@H](COC)Cn1cnc2c(N)ncnc21)Oc1ccccc1 (stereo partly drawn) [Compound 164, phenyl octadecyloxyethyl 9-(S)-[(3-methoxy-2-phosphonomethoxy)propyl]adenine]
CC50 at 7 days [2]: > 100 µM
Selectivity Index [3]: >37.5
EC50 [3, 22]: < 0.4 µM
CC50 at 7 days [4]: 15 µM
EC50 [5]: 0.46 µM
Selectivity Index [5]: >216

CCCCCCCCCCCCCCCCCCOCCOP(=O)(CO[C@H](C)Cn1cnc2c(N)ncnc21)OCc1ccccc1 (stereo partly drawn) [Compound 74, benzyl octadecyloxyethyl 9-(R)-[(2-phosphonomethoxy)propyl]adenine]
CC50 at 7 days [2]: 64 µM
Selectivity Index [3]: >4920
EC50 [3, 22]: < 0.005 µM
CC50 at 7 days ([4]; PHA-stimulated human PBMCs): 24.6 µM
EC50 [5]: 6.5 µM
Selectivity Index [5]: 10

CCCCCCCCCCCCCCCCOCCCOP(=O)(COCCn1cnc2c(=O)[nH]c(N)nc21)Oc1ccccc1 (centres unmarked) [Compound 25, phenyl hexadecyloxypropyl 9-(2-phosphonomethoxyethyl)guanine]
EC50 ([3]; HIV-192US727 infected human PBMC, 7 days, supernatant reverse transcriptase activity): < 0.002 µM
CC50 [10]: 0.25 µM

CCCCCCCCCCCCCCCCCCOCCOP(=O)(COCCn1cnc2c(N)ncnc21)OCc1ccccc1 (centres unmarked) [Compound 2, benzyl octadecyloxyethyl 9-(2-phosphonomethoxyethyl)adenine]
EC50 ([11]; JC polyomavirus, COS-7, 168 h): > 4 µM
Selectivity Index ([11]; JC virus (MAD-1), COS7 cells): <2.7
EC50 ([8]; HEK293, HPV-11 origin replication in HEK 293 cells, 48 hr, qPCR): 0.27 µM
Selectivity Index ([8]; HPV-11, HEK 293 cells): >130
Selectivity Index ([12]; BK virus (Gardner strain), HFF cells): >238
EC50 ([12]; Betapolyomavirus hominis, HFF, 336 h): < 0.03 µM
CC50 at 7 days [13]: 10.6 µM
CC50 at 7 days [2]: > 100 µM
EC50 ([14]; Human betaherpesvirus 5, AD169, HFF, 336 h): 0.11 µM
Selectivity Index ([14]; human cytomegalovirus (AD169), HFF cells): 166
CC50 at 3 days [15]: 16.6 µM
CC50 at 14 days [16]: 7.14 µM
CC50 at 14 days [17]: 18.3 µM
EC50 [18]: < 0.01 nM
CC50 at 48 h [19]: > 100 µM
Selectivity Index [3]: >1100
EC50 [3, 22]: < 0.01 µM
CC50 at 7 days ([4]; PHA-stimulated human PBMCs): 11 µM
CC50 at 48 h [6]: > 10 µM
EC50 ([7]; HEK293, HPV-16 origin replication in HEK 293 cells, 48 hr, qPCR, read-out: EC50): 0.99 µM
Selectivity Index [7]: >10.1
EC50 [5]: 0.88 µM
Selectivity Index [5]: >113
CC50 at 72 h [20]: < 0.01 µM
CC50 ([9]; Homo sapiens, MT2): < 0.01 µM

CCCCCCCCCCCCCCCCCCOCCOP(=O)(CO[C@H](C)Cn1cnc2c(=O)[nH]c(N)nc21)OCc1ccccc1 (stereo partly drawn) [Compound 73, benzyl octadecyloxyethyl 9-(R)-[(2-phosphonomethoxy)propyl]guanine]
CC50 at 7 days [2]: 63 µM
Selectivity Index [3]: >2260
EC50 [3, 22]: < 0.005 µM
CC50 at 7 days ([4]; PHA-stimulated human PBMCs): 11.3 µM
EC50 [5]: 34 µM
Selectivity Index [5]: 1.9

CCCCCCCCCCCCCCCCCCOCCOP(=O)(CO[C@H](CO)Cn1ccc(=O)[nH]c1=O)OCc1ccccc1 (stereo partly drawn) [Compound 221, benzyl octadecyloxyethyl 9-(S)-[3-hydroxy-2-(phosphonomethoxy)propyl]uracil]
CC50 at 3 days [21]: > 10 µM

CCCCCCCCCCCCCCCCCCOCCOP(=O)(COCCn1cnc2c(=O)[nH]c(N)nc21)OCc1ccccc1 (single isomer, unassigned) [Compound 1b, benzyl octadecyloxyethyl 9-(2-phosphonomethoxyethyl)guanine]
EC90 [8, 23]: 1.16 µM
CC50 [9]: < 0.01 µM
